Data: US10363235B2, “Compositions comprising 15-HEPE and methods of treating or preventing fibrosis using same” (Afimmune Limited, priority 2014, dated 2019)
“Also recorded” adds a separate entry of the source.

Columns and labels:
[1] = test system: mouse model of non-alcoholic steatohepatitis (NASH); experiment: NASH mouse model (streptozotocin plus high fat diet), liver fibrosis, Example 2; assay type: in vivo, mice; conditions: 500 mg/kg orally once daily from 5 to 9 weeks of age; compared with EPA (500 mg/kg) or vehicle; FIG. 9
Method: Non-alcoholic steatohepatitis (NASH) was induced in mice by a single subcutaneous injection of 200 μg of streptozotocin (Sigma Aldrich) two days after birth and feeding with high fat diet (57 kcal % fat, CLEA Japan) after 4 weeks of age. After randomization, each mouse was orally administered vehicle, telmisartan (10 mg/kg), 15-HEPE (500 mg/kg) or EPA (500 mg/kg) once daily from 5 to 9 weeks of age. At the end of the 9th week, the mice were sacrificed and analyzed.

[2] = test system: Lung Fibroblasts from Idiopathic Pulmonary Fibrosis (IPF) patients; experiment: TGF-beta induced alpha-SMA production in IPF lung fibroblasts; assay type: cell-based, human; conditions: 100 ug/ml; 2 hours pretreatment, then TGF beta (20 ng/ml) for 48 hours; FIG. 10
Method: Lung Fibroblasts from Idiopathic Pulmonary Fibrosis (IPF) patients were plated at 10000 cells per well in their respective growth mediums and allowed to attach overnight. After attachment, the cells were pretreated with 15(S)-HEPE for 2 hours in their respective assay mediums. After 2 hours, the cells were then treated with compounds+/−TGF beta (20 ng/ml) for 48 hours. After 48 hours, the conditioned media was collected and frozen at −80° C. for future collagen analysis. After collection, the cells were stained for SMA I expression. The collagen ELISA was performed according to the manufacturer's instructions.

[3] = 15-HEPE levels in tissues of dosed rats; assay type: in vivo; conditions: 500 mg/kg for 7 days, treated vs untreated control, FIG. 11
Method: Rats (n=5) were dosed with 15-HEPE (DS102) 500 mg/kg for 7 days and organs excised to analyse 15-HEPE levels in the tissues of treated vs untreated animals.

mouse model of NAFLD = mouse model of NAFLD (streptozotocin plus high-fat diet), Example 1; assay type: in vivo, mice (C57/BL6); conditions: for fibrosis (histology, sirius red staining): compared to vehicle, FIGS. 7A-7D; for NAFLD Activity Score (NAS): FIGS. 8A-D
Method: The purpose of this study was to examine the effects of 15-HEPE and 15-HETrE compared to vehicle and to telmisartan in a mouse model of NAFLD.
C57/BL6 mice obtained from Charles River Laboratories were divided into 6 study groups as follows:
Group 1 (Vehicle): Twelve mice were each administered a single dose of steptozotocin after birth and fed a high-fat diet for four weeks. The mice were then fed vehicle in a volume of 10 mL/kg once daily from 5 to 12 weeks of age.
Group 2 (telmisartan): Twelve mice were each administered a single dose of steptozotocin after birth and fed a high-fat diet for four weeks. The mice were then fed telmisartan in an amount of 5 mg/kg once daily from 5 to 12 weeks of age.
Group 3 (15-HEPE, low dose): Twelve mice were each administered a single dose of steptozotocin after birth and fed a high-fat diet for four weeks. The mice were then fed 15-HEPE in an amount of 50 mg/kg once daily from 5 to 12 weeks of age.
Group 4 (15-HEPE, high dose): Twelve mice were each administered a single dose of steptozotocin after birth and fed a high-fat diet for four weeks. The mice were then fed 15-HEPE in an amount of 500 mg/kg once daily from 5 to 12 weeks of age.
Group 5 (15-HETrE, low dose): Twelve mice were each administered a single dose of steptozotocin after birth and fed a high-fat diet for four weeks. The mice were then fed 15-HETrE in an amount of 10 mg/kg once daily from 5 to 12 weeks of age.
Group 6 (15-HETrE, high dose): Twelve mice were administered a single dose of steptozotocin after birth and fed a high-fat diet for four weeks. The mice were then fed 15-HETrE in an amount of 100 mg/kg once daily from 5 to 12 weeks of age.
At 12 weeks of age, all mice were assessed for changes in: • serum biochemistry (e.g., ALT levels, LDL levels, VLDL levels, HDL levels, triglyceride levels, total cholesterol level), • fibrosis (e.g., histology using sirius red staining), and • NAFLD activity score (including, e.g., H&E staining histology). Results

[4] = test system: Lung Fibroblasts from Idiopathic Pulmonary Fibrosis (IPF) patients; experiment: cytotoxicity in IPF lung fibroblasts; assay type: cell-based, human; conditions: treatment for 48 hours
[5] = telmisartan 5 mg/kg once daily from 5 to 12 weeks of age, vs vehicle

With `CCC=CCC(O)C=CC=CCC=CCC=CCCCC(=O)O` (stereo not shown) [15-HEPE, 15-Hydroxy-eicosa-5,8,11,13,17-pentaenoic acid] as the compound, how does the “treating and/or preventing liver fibrosis” value [1] read?
The value was “more effective”.

And the “TGF-beta induced alpha-SMA production” value [2]?
Its value is “inhibited; also recorded: inhibition”.

What about the “15-HEPE level in the liver” value [3] of the same compound?
Its value is “significantly more”.

And the “15-HEPE level in the lung” value [3]?
The value was “significantly more”.

And the “fibrosis (histology, sirius red staining)” value (mouse model of NAFLD; high-dose 15-HEPE 500 mg/kg once daily from 5 to 12 weeks of age, equivalent to telmisartan)?
The value was “statistically equivalent low amount of fibrosis”.

And the “plasma ALT levels” value (mouse model of NAFLD; high-dose 15-HEPE 500 mg/kg once daily from 5 to 12 weeks of age, vs high-dose 15-HETrE group (100 mg/kg), FIG. 6)?
The value was “significantly lower”.

And the “NAFLD Activity Score (NAS)” value (mouse model of NAFLD; high-dose 15-HEPE 500 mg/kg once daily from 5 to 12 weeks of age, vs placebo (vehicle), p<0.01)?
The value was “significantly lower”.

And the “plasma ALT levels” value (mouse model of NAFLD; high-dose 15-HEPE 500 mg/kg once daily from 5 to 12 weeks of age, vs vehicle, FIG. 6)?
Its value is “significantly lower”.

What about the Total cholesterol levels (mouse model of NAFLD; low-dose 15-HEPE 50 mg/kg once daily from 5 to 12 weeks of age, vs vehicle, FIG. 4) of the same compound?
The Total cholesterol levels was “significantly lower”.

What about the cytotoxicity [4] of the same compound?
The cytotoxicity was “No cytotoxicity”.

For `CCCCCC(O)/C=C/C=C\C/C=C\CCCCCCC(=O)O` (stereo not shown) [15-HETrE, 15-hydroxyeicosa-8(Z),11(Z),13(E)-trienoic acid], which serum triglycerides (mouse model of NAFLD; low-dose 15-HETrE 10 mg/kg once daily from 5 to 12 weeks of age, vs vehicle (Mann Whitney), FIG. 1) is on record?
The serum triglycerides was “significantly lower”.

And the VLDL levels (mouse model of NAFLD; low-dose 15-HETrE 10 mg/kg once daily from 5 to 12 weeks of age, vs vehicle, FIG. 2)?
Its VLDL levels is “significantly lower”.

What about the LDL levels (mouse model of NAFLD; low-dose 15-HETrE 10 mg/kg once daily from 5 to 12 weeks of age, vs vehicle, FIG. 3) of the same compound?
The LDL levels was “significantly lower”.

And the Total cholesterol levels (mouse model of NAFLD; low-dose 15-HETrE 10 mg/kg once daily from 5 to 12 weeks of age, vs vehicle, FIG. 4)?
The Total cholesterol levels was “significantly lower”.

With `CCCc1nc2c(C)cc(-c3nc4ccccc4n3C)cc2n1Cc1ccc(-c2ccccc2C(=O)O)cc1` [telmisartan, 2-(4-{[4-Methyl-6-(1-methyl-1H-1,3-benzodiazol-2-yl)-2-propyl-1H-1,3-benzodiazol-1-yl]methyl}phenyl)benzoic acid] as the compound, how does the “fibrosis (histology, sirius red staining)” value (mouse model of NAFLD; telmisartan 5 mg/kg once daily from 5 to 12 weeks of age) read?
The value was “low amount of fibrosis”.

And the Hydroxyproline levels (mouse model of NAFLD; [5])?
The Hydroxyproline levels was “did not show statistically significant reductions”.

And the LDL levels (mouse model of NAFLD; [5])?
Its LDL levels is “did not show statistically significant reductions”.

And the Total cholesterol levels (mouse model of NAFLD; [5])?
Its Total cholesterol levels is “did not show statistically significant reductions”.

And the VLDL levels (mouse model of NAFLD; [5])?
Its VLDL levels is “did not show statistically significant reductions”.

What about the “plasma ALT levels” value (mouse model of NAFLD; [5]) of the same compound?
Its value is “did not show statistically significant reductions”.

What about the serum triglycerides (mouse model of NAFLD; [5]) of the same compound?
The serum triglycerides was “did not show statistically significant reductions”.

And the “NAFLD Activity Score (NAS)” value (mouse model of NAFLD; telmisartan 5 mg/kg once daily from 5 to 12 weeks of age, vs vehicle, p<0.001)?
Its value is “significantly lower”.
